Reference: patent US8686016B2, “Schweinfurthins and uses thereof” (The United States of America, as represented by the …, priority 2009, dated 2014)
Entries after “also recorded” stand apart in the source; their conditions may differ.

Columns and labels:
[1] = system: A549 human lung carcinoma cells; assay: Clonogenic assay, A549; format: cell-based; details: 18 hrs treatment, colonies after one week
Method: Clonogenic Assays: Monolayers of cells were treated for 18 hrs with SA, and then harvested, counted, and seeded to 35 mm dishes at a density of 1000 cells per dish. After one week, macroscopic colonies were stained with crystal violet (Sigma, St. Louis, Mo., USA) and counted.

[2] = system: KR158 astrocytoma cells (Nf1−/−; Trp53−/−); assay: XTT cell proliferation assay, KR158; format: cell-based, mouse
Method: (§1) XTT Cell Proliferation Assay: Cells were seeded into 96-well plates at a density of 2,000 cells/well and allowed to reattach overnight. Cells were treated with SA, synthetic analogs, camptothecin (NCI Chemotherapeutics Repository, Md., USA), or DMSO control at the indicated concentrations continuously for 48 hours followed by assay in the 96-well plate for relative viable cell number using the dye […] (XTT) and a Wallac-Victor 2 plate reader (Perkin-Elmer, Waltham, Mass., USA). Absorbance was determined at 450 nm with 650 nm as a reference reading. Primary astrocytes were additionally assayed at a 96 hour time point.

[3] = system: KR158 cells transduced with empty vector (PMSCV); assay: XTT cell proliferation assay, KR158 empty vector; format: cell-based, mouse; details: two-day cell proliferation assay
Method: as §1
(§2) Constructs and Transfections: NF1-GRD retroviral constructs were obtained from Indiana University. Cells transduced with the NF1-GRD construct or PMSCV empty vector control as previously described (Hiatt et al., J. Biol. Chem., 2001, 276:7240-5) were maintained in 1 μg/mL puromycin (Sigma).

[4] = system: sporadic MPNST STS26T cells; assay: XTT cell proliferation assay, STS26T; format: cell-based, human
Method: as §1
Cell lines and culture: Human MPNST cell lines (STS26T and T265) were obtained from the Pediatric Oncology Branch, NCI (Bethesda, Md., USA).

[5] = system: NF1-GRD expressing KR158 clones; assay: Cell morphology / actin confocal microscopy, NF1-GRD KR158; format: cell-based, mouse
Method: as §2
Cell Morphology Assays and Confocal Microscopy: To assay cytoskeleton morphology, KR158 cells, mouse primary astrocytes, KR158 clones expressing the NF1-GRD constructs, K14553 cells, and A549 were seeded to cover slips and allowed to reattach overnight. Cells were treated for 18 hours with either the indicated concentrations of SA, or the vehicle control DMSO. The cover slips were fixed in 3.7% paraformaldehyde, permeablized in 0.1% Triton-X100, and stained with Alexa Fluor 488-phalloidin (Invitrogen, Carlsbad, Calif., USA) to detect actin and cells were mounted in Prolong Antifade containing DAPI (Invitrogen) to stain nuclei. The cells were imaged on a LSM510 confocal microscope (Carl Zeiss Inc., Jena, Germany). For phospho-myosin light chain 2 (MLC) detection, cells were seeded to coverslips as described above. […] Actin structures were monitored continuously over a 16 hr period using confocal microscopy equipped with a growth chamber (37° C., humidified atmosphere and 5% CO2). […]

CC(C)=CCC/C(C)=C/Cc1c(O)cc(/C=C/c2cc(O)c3c(c2)C[C@@H]2C(C)(C)[C@H](O)[C@H](O)C[C@@]2(C)O3)cc1O [SA, Schweinfurthin A]
colony growth [1]: not inhibited; also recorded: formed colonies up to the highest concentration of SA tested | inhibition of proliferation (percent viability versus control) ([2]; 48 hours, XTT): highly active; also recorded: sensitive; also recorded: inhibited both the KR158 and SF-295 cell lines in a dose dependent manner | GI50 ([2]; Mus musculus, KR158, Nf1-mutant astrocytoma cells): 10 nM | inhibition of proliferation [3]: highly active | inhibition of proliferation [4]: much weaker inhibition of proliferation; also recorded: are not | actin structures [5]: did not change
